Patent US6900021B1, “Microfluidic system and methods of use” (The University of Alberta, priority 1997, dated 2005)

What was measured:
E-selectin [1] = biological target: T1, E-selectin (Homo sapiens, UniProt P16581); assay: Cell rolling assay with undiluted human blood, E-selectin coated device; assay type: cell-based; settings: heparinated whole human blood; HCRIVc device
T1 sequence (P16581 22-610): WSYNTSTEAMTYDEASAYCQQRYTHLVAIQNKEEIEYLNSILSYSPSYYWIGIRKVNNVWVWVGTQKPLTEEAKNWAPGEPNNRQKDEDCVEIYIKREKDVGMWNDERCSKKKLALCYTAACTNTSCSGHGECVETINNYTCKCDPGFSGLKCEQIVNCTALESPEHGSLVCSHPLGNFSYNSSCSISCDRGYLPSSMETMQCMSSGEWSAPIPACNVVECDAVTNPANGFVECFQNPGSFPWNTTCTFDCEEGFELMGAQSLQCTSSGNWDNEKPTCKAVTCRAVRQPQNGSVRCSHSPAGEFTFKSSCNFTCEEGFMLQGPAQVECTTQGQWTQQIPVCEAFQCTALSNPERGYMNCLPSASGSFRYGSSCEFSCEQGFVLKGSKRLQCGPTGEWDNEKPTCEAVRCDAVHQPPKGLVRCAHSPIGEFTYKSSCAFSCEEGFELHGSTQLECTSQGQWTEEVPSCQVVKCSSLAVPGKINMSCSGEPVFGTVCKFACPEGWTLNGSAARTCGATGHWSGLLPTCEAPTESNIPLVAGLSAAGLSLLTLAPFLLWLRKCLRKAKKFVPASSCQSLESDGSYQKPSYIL
Protocol: (§1) This device was previously coated either P-selectin or E-selectin as described above. 50 μl heparinated whole human blood (1 mg/ml heparin was added to the blood) was introduced into the first reservoir of the “Y” shape device shown in FIG. 12. The human blood was moved from the reservoir into the channel by a syringe pump at optimum flow rate for the device (see Table II) and the main flow channel, about 1-2 cm from intersection of “Y”, was observed under the microscope for 15 minutes.
(§2) 50 μl of a mixture of inhibitor and heparinated blood was placed into the second reservoir and introduced into the channel for 3-10 minutes.

P-selectin [2] = biological target: T2, P-selectin (Homo sapiens, UniProt P16109); assay: Cell rolling assay with undiluted human blood, P-selectin coated device; assay type: cell-based; settings: heparinated whole human blood; HCRIVc device
T2 sequence (P16109 42-830): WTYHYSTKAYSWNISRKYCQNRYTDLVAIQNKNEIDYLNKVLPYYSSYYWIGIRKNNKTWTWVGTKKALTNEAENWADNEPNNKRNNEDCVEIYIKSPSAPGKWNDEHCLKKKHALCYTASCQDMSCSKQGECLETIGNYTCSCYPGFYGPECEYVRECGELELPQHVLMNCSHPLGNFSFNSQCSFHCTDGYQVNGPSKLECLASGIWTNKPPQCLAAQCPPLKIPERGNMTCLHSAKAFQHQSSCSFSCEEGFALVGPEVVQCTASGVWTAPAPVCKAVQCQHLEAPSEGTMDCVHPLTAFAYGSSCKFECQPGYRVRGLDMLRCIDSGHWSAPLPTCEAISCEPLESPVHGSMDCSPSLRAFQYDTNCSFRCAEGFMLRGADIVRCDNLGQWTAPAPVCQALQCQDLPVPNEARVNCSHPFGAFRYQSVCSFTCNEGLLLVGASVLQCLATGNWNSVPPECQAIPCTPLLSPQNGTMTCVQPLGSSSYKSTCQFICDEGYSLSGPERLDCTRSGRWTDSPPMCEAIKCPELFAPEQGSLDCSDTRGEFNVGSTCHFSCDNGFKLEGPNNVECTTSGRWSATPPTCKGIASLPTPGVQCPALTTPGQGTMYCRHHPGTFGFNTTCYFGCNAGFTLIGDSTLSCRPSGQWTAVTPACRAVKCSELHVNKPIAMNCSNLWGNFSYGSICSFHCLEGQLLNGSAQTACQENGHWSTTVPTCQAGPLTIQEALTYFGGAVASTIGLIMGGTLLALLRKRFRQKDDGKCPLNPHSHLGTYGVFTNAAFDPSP
Protocol: as §1, §2

E-selectin [3] = biological target: T1, E-selectin; assay: Cell rolling of neutrophils on E-selectin coated microchip; assay type: cell-based; settings: concentration not given
P-selectin [4] = biological target: T2, P-selectin; assay: Cell rolling of neutrophils on P-selectin coated microchip; assay type: cell-based; settings: concentration not given
Protocol: In preparation for cell rolling, the channels were coated with the desired selectin by methods similar to those set forth in Example VII.
To study cell rolling, two reservoirs leading to one channel were filled with cells. The contents of both the first and second reservoir (cells only) were drawn into the channel and cell rolling was observed.
The HCRIVa microchip was coated with 20 μg/ml P-selectin by methods similar to that described in Example VII and incubated for two hours. Isolated human neutrophils were moved through the rolling microchip with a flow rate of 10 μl/min. (approx. 800/cm shear rate=40 dynes/cm^2 shear force).

human lymphocytes [5] = assay: Calcium influx assay with lymphocyte inhibitor; assay type: cell-based
Protocol: The microfluidic device and human lymphocytes were prepared as described in Example III.
With reference to FIG. 8, 100 μM of verapamil, an inhibitor, was introduced into channel #1; buffer was introduced into channel #2; leukocytes were introduced into channel #3; and calcium activator A23187 was introduced into channel #4.
The device was run as described in Example III above. Verapamil was introduced to the lymphocytes at point “A” intersection of the device (FIG. 8). The lymphocytes were incubated with verapamil for four minutes while transported through the main channel to the mixing point “B”.

human lymphocytes [6] = assay: Calcium influx assay (stop flow, Fluo-3 AM fluorescence) with activator; assay type: cell-based; settings: single lymphocyte
Source text: Calcium influx is involved in major cell functions and responses of lymphocytes. In this assay, the calcium ion influx into the lymphocytes is induced by a calcium releasing agent, calcimycin (A23187, calcium ionophore). The rise in the concentration of free intracellular calcium ions results in an increase in fluorescent signal from cells pretreated with a fluorescing agent. The kinetic results of calcium influx may be studied with the stop flow method in the microfluidic device.
There are several steps in the study of the process of calcium influx. First, an activator, calcimycin (A23187 calcium ionophore) and the calcium ion complex must adsorb on the cell surface. Second, the complex has to diffuse through the cell membrane. Third, once inside the cytosol, dissociation between the A23187 and calcium ion has to take place. Finally, a fluorescing agent, FLUO-3 AM, complexes with the released calcium and produces emitted light that can be detected (fluorescence).
For measurement of calcium influx, a calcium-specific fluorophore, Fluo-3 AM (Molecular Proves), was preloaded into purified human lymphocytes as acetoxymethyl (AM) ester. […]
A fluorescence microscope equipped with a 25× objective and a CCD camera was positioned over the detection zone, point “B” in FIG. 8, allowed the observation of cells as they passed the detection zone. […]

canine erythrocytes = assay: Lysis of canine erythrocytes by SDS in the microchip; assay type: cell-based, dog
Protocol: A phosphate buffer, 40 mM each of NA2HPO4 and KH2PO4 (BDH analytical grade) was adjusted to pH 7.4 with either NaOH or HCl and used as an isotonic buffer for canine erythrocytes. (The plasma concentrations of […] in canine plasma are 94 and 6 mM. respectively. (8,9) Assuming a monoanion as the counterion gives as osmolarity of 200 mM, equal to that of the buffer prepared.) A hypotonic solvent, deionized water, was used to prepare yeast or E. coli cell suspensions. Sodium dodecyl sulfate (SDS, Serva, analytical grade) was prepared at 3 mM (0.1 wt %) in deionized water. Other chemicals were reagent grade and were used without further purification.
Red blood cells of a healthy dog were obtained from Heritage Medical Research Centre (Edmonton, AB, Canada). Blood samples were collected using EDTA as the anticoagulant. These were centrifuged for separation into various blood components. After removal of the plasma and buffy coat, the erythrocytes were isolated as a cell pellet. A citrate-phosphate-dextrose (CPD) solution, (9), used to store human whole blood for enhancement of the poststorage viability of red cells, (10), was adapted for handling and storing the canine cells by addition of KCl and NaCl as well. The solutions contained 2.5 mM dextrose, 1.6 mM sodium citrate, 0.28 mM citric acid, 0.15 mM Na2HPO4, 94 mM NaCl, and 6.0 mM KCl. An erythrocyte suspension of 5% hematocrit was used. The cells were washed several times with the isotonic phosphate buffer to remove the storage buffer, using a Sanyo MSE MicroCentaur centrifuge.
The visual cell lysis experiment was performed in the COPI device (FIG. 5A). The B reservoir, which contained erythrocytes and the S reservoir, containing 3 mM SDS, were both at +150 V, while the SW reservoir was at ground. The potential at BW was floating.
For the cell lysis experiment using PMT detection, the PCRD2 device (FIG. 5B) was used. Cells were introduced into the S reservoir to which 400 V was applied, versus ground on the SW reservoir. A 3 mM SDS solution was introduced into the B reservoir. […]

## Fucoidine
E-selectin [1]
  inhibition of leukocyte rolling in whole blood in the presence of E-selectin: took a longer time to inhibit rolling
P-selectin [2]
  inhibition of leukocyte rolling in whole blood in the presence of P-selectin: took a longer time to inhibit rolling
E-selectin [3]
  inhibition of rolling of the neutrophils in the presence of E-selectin: took a longer time to inhibit rolling
P-selectin [4]
  inhibition of rolling of the neutrophils in the presence of P-selectin: took a longer time to inhibit rolling

## COc1ccc(CCN(C)CCCC(C#N)(c2ccc(OC)c(OC)c2)C(C)C)cc1OC (centres unmarked) [verapamil]
Human lymphocytes [5]; 100 μM, incubated four minutes, activator A23187
  activation in calcium flux: significant reduction
Human lymphocytes [5]; 100 μM, incubated four minutes, twenty individual lymphocytes
  fluorescence of inhibitor treated lymphocyte after activation with A23187: no fluorescence
Human lymphocytes [5]; lymphocytes incubated for 30 seconds in the mixing channel
  inhibition of calcium influx: no inhibition

## CNc1ccc2oc(C[C@H]3O[C@@]4(CC[C@H]3C)O[C@H]([C@H](C)C(=O)c3ccc[nH]3)[C@H](C)C[C@H]4C)nc2c1C(=O)O [A23187, calcimycin]
Human lymphocytes [6]
  time at the mixing point until lymphocyte showed fluorescence caused by calcium influx: 4 s

## CCCCCCCCCCCCOS(=O)(=O)[O-].[Na+] [SDS, Sodium dodecyl sulfate]
Canine erythrocytes; 3 mM SDS in deionized water, PMT 2.5 mm downstream of mixing point, PCRD2 device
  scattered light signal from the cells: signal dropped
Canine erythrocytes; 3 mM SDS, COPI device, double-T region, 130 V/cm
  total time elapsed for lysis of the marked cells (three frames): 0.3 s
Canine erythrocytes; anionic detergent mixed with cell stream at an intersection
  lysis of erythrocytes (hemolysis) in a flowing stream: lysed cells sufficiently rapidly
